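Briefly, cells in 96-well plates were exposed to five compound concentrations for 48 h, and endpoints were estimated by linear interpolation. GI50: concentration for 50% inhibition of growth. TGI: total growth inhibition.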
How the values were obtained:
Assay in all cases: NCI tumour cell line growth inhibition, 48 h
NCI/ADR-RES ovarian = tested on: NCI/ADR-RES ovarian
A549 NSCLC = tested on: A549 NSCLC
SF-295 CNS = tested on: SF-295 CNS
SN12C renal = tested on: SN12C renal
IGROV1 ovarian = tested on: IGROV1 ovarian
UACC-62 melanoma = tested on: UACC-62 melanoma
SNB-75 CNS = tested on: SNB-75 CNS
SW-620 colon = tested on: SW-620 colon
T-47D breast = tested on: T-47D breast
EKVX NSCLC = tested on: EKVX NSCLC

Compound | GI50 (NCI/ADR-RES ovarian) [µM] | TGI (NCI/ADR-RES ovarian) [µM] | GI50 (A549 NSCLC) [µM] | TGI (A549 NSCLC) [µM] | GI50 (SF-295 CNS) [µM] | TGI (SF-295 CNS) [µM] | GI50 (SN12C renal) [µM] | TGI (SN12C renal) [µM] | GI50 (IGROV1 ovarian) [µM] | TGI (IGROV1 ovarian) [µM] | GI50 (UACC-62 melanoma) [µM] | TGI (UACC-62 melanoma) [µM] | GI50 (SNB-75 CNS) [µM] | TGI (SNB-75 CNS) [µM] | GI50 (SW-620 colon) [µM] | TGI (SW-620 colon) [µM] | GI50 (T-47D breast) [µM] | TGI (T-47D breast) [µM] | GI50 (EKVX NSCLC) [µM] | TGI (EKVX NSCLC) [µM]
Cc1cc(OCc2ccc(C(F)(F)F)cc2)c2c(c1)C(=O)C=C(NCCN1CCCC1)C2=O | 6.04 | 20.5 | 2.85 | 9.68 | 1.88 | 4 | 9.86 | 28.3 | 6.69 | 25.1 | 1.82 | 3.51 | 1.49 | 2.89 | 1.78 | 3.48 | – | – | – | –
O=C1C=CC2C3C(=O)N(c4ccccc4)C(=O)C3C1N2Cc1ccccc1 (configuration not stated) | 2.55 | 8.75 | 14.9 | 29.7 | 6.41 | 15.4 | 1.64 | 3.43 | 4.81 | 12.3 | 2.01 | 6.19 | 4.19 | 15.7 | 1.93 | 4.32 | 4.93 | 18.2 | 7.78 | 23.6
Oc1c(C(c2ccc(F)cc2)N2CCCCC2)ccc2cncnc12 (configuration not stated) | 2.58 | > 100 | 0.377 | > 51.3 | 0.413 | > 100 | 0.396 | > 100 | 0.532 | 21.7 | 0.476 | 5.11 | 0.246 | 3.95 | 0.478 | > 100 | 0.612 | 97 | 0.672 | 45.9
COC(=O)C1=C(C)NC(=S)NC1c1ccc(N(CCCl)CCCl)cc1Cl (configuration not stated) | – | > 100 | – | > 58.7 | – | > 82.4 | – | > 100 | – | > 89.1 | – | 16.1 | – | > 100 | – | > 100 | – | > 55.4 | – | > 37.8
Cc1ccc2ccccc2c1CSc1nc(N)nc2c1ncn2CC(C)C | – | > 100 | – | > 100 | – | > 100 | – | > 100 | – | > 100 | – | > 100 | – | > 100 | – | > 100 | – | > 47.8 | – | > 100
[N-]=[N+]=C(C(=O)CN1CCCC1=O)S(=O)(=O)c1ccccc1 | – | > 100 | – | > 100 | – | > 100 | – | > 100 | – | > 100 | – | > 100 | – | > 100 | – | > 100 | – | – | – | > 100
CCOC(=O)N1CCC(N=C2CSc3nnc(-c4cc(C(F)(F)F)cc(C(F)(F)F)c4)n3N2)CC1 | 2.58 | 8.08 | – | – | 1.51 | 3.08 | 1.7 | 3.57 | 1.9 | 4.79 | 1.64 | 3.36 | 1.92 | 5.54 | 2.09 | 4.27 | 2.6 | 6.82 | 1.77 | 5.43
Nc1nc2cc(Cl)ccc2n1N | – | – | – | > 100 | – | > 100 | – | > 100 | – | > 100 | – | > 100 | – | > 100 | – | > 100 | – | > 100 | – | > 100

— PubChem BioAssay (NCI)
